Source: ChEMBL document CHEMBL1151249, “Cytotoxic and antimicrobial constituents of the bark of Diospyros maritima collected in two geographical locations in Indonesia” (J Nat Prod, 2004)
Values after ≈ are worked out from the molar mass of the structure shown.

Assays:
[1] = tested on: Staphylococcus aureus; test: Antimicrobial activity against Staphylococcus aureus assessed as 99.9 % growth inhibition after 18 hrs by zone-of-inhibition assay; type: functional
[2] = Cytotoxicity against human HUVEC; type: cell-based; conditions: HUVEC cells, read-out: ED50 (the source's name)
[3] = tested on: Cryptococcus neoformans; test: Antifungal activity against Cryptococcus neoformans assessed as 99.9 % growth inhibition after 18 hrs by zone-of-inhibition assay; type: functional
[4] = tested on: Candida albicans; test: Antifungal activity against Candida albicans after 18 hrs by zone-of-inhibition assay; type: functional, organism-based; conditions: for IC50: Candida albicans, 18 h
[5] = tested on: KB; test: Cytotoxicity against human KB cells; type: functional, cell-based
[6] = tested on: Micrococcus luteus; test: Antimicrobial activity against Micrococcus luteus assessed as 99.9 % growth inhibition after 18 hrs by zone-of-inhibition assay; type: functional
[7] = tested on: LNCaP; test: Cytotoxicity against human LNCAP cells; type: functional; conditions: read-out: ED50 (the source's name)
[8] = tested on: Cryptococcus neoformans; test: Antifungal activity against Cryptococcus neoformans after 18 hrs by zone-of-inhibition assay; type: functional, organism-based; conditions: for IC50: Cryptococcus neoformans, 18 h
[9] = tested on: Saccharomyces cerevisiae; test: Antifungal activity against Saccharomyces cerevisiae assessed as 99.9 % growth inhibition after 18 hrs by zone-of-inhibition assay; type: functional
[10] = tested on: Aspergillus niger; test: Antifungal activity against Aspergillus niger after 18 hrs by zone-of-inhibition assay; type: functional, organism-based
[11] = tested on: Candida albicans; test: Antimicrobial activity against Candida albicans assessed as 99.9 % growth inhibition after 18 hrs by zone-of-inhibition assay; type: functional
[12] = tested on: Aspergillus niger; test: Antifungal activity against Aspergillus niger assessed as 99.9 % growth inhibition after 18 hrs by zone-of-inhibition assay; type: functional
[13] = tested on: Saccharomyces cerevisiae; test: Antifungal activity against Saccharomyces cerevisiae after 18 hrs by zone-of-inhibition assay; type: functional, organism-based
[14] = tested on: Staphylococcus aureus; test: Antimicrobial activity against Staphylococcus aureus after 18 hrs by zone-of-inhibition assay; type: functional, organism-based
[15] = tested on: Micrococcus luteus; test: Antimicrobial activity against Micrococcus luteus after 18 hrs by zone-of-inhibition assay; type: functional, organism-based
[16] = tested on: Mycobacterium avium; test: Antimicrobial activity against Mycobacterium avium after 18 hrs by zone-of-inhibition assay; type: functional, organism-based
[17] = tested on: Mycolicibacterium smegmatis; test: Antimicrobial activity against Mycobacterium smegmatis after 18 hrs by zone-of-inhibition assay; type: functional, organism-based
[18] = tested on: Lu1; test: Cytotoxicity against human Lu1 cells; type: functional; conditions: read-out: ED50 (the source's name)
[19] = tested on: Mycolicibacterium smegmatis; test: Antimicrobial activity against Mycobacterium smegmatis assessed as 99.9 % growth inhibition after 18 hrs by zone-of-inhibition assay; type: functional
[20] = read-out: ED50 (the source's name)

| Structure (SMILES) | Activity [1] | CC50 [2] | Activity [3] | IC50 [4] | EC50 [5, 20] | Activity [6] | EC50 [7] | IC50 [8] | Activity [9] | IC50 [10] | Activity [11] | Activity [12] | IC50 [13] | IC50 [14] | IC50 [15] | IC50 [16] | IC50 [17] | EC50 [18] | Activity [19] | other results |
| --- | --- | --- | --- | --- | --- | --- | --- | --- | --- | --- | --- | --- | --- | --- | --- | --- | --- | --- | --- | --- |
| Cc1cc(O)c2c(c1)[C@@H](O)CCC2=O [4S-SHINANOLONE] | >1000 µg/mL | > 5 µg/mL | >1000 µg/mL | > 1000 µg/mL | > 5 µg/mL | >1000 µg/mL | > 5 µg/mL | > 1000 µg/mL | >1000 µg/mL | > 1000 µg/mL | >1000 µg/mL | >1000 µg/mL | > 1000 µg/mL | > 1000 µg/mL | > 1000 µg/mL | > 1000 µg/mL | > 1000 µg/mL | > 5 µg/mL | >1000 µg/mL |  |
| COc1cc2c[n+](C)c3c4cc5c(cc4ccc3c2cc1OC)OCO5.[Cl-] [NITIDINE CHLORIDE] | 5000 µg/mL |  | 300 µg/mL |  |  | 5000 µg/mL |  |  | 3000 µg/mL | 3000 µg/mL | 200 µg/mL | >5000 µg/mL | 300 µg/mL | 300 µg/mL | 200 µg/mL | 3000 µg/mL | 1000 µg/mL |  | >5000 µg/mL | Activity [4]: 20 µg/mL; Activity [8]: 80 µg/mL |
| C=C(C)[C@@H]1CC[C@]2(CO)CC[C@]3(C)[C@H](CC[C@@H]4[C@@]5(C)CC[C@H](O)C(C)(C)[C@@H]5CC[C@]43C)[C@@H]12 [BETULIN] |  | > 5 µg/mL |  |  | > 5 µg/mL |  | > 5 µg/mL |  |  |  |  |  |  |  |  |  |  | > 5 µg/mL |  |  |
| COc1c(O)cc2ccc(=O)oc2c1OC | >1000 µg/mL | > 5 µg/mL | >1000 µg/mL | > 1000 µg/mL | > 5 µg/mL | >1000 µg/mL | > 5 µg/mL | > 1000 µg/mL | >1000 µg/mL | > 1000 µg/mL | >1000 µg/mL | >1000 µg/mL | > 1000 µg/mL | > 1000 µg/mL | > 1000 µg/mL | > 1000 µg/mL | > 1000 µg/mL | > 5 µg/mL | >1000 µg/mL |  |
| CC[C@@]1(O)C(=O)OCc2c1cc1n(c2=O)Cc2cc3ccccc3nc2-1 [CAMPTOTHECIN] |  |  |  |  |  |  |  |  |  |  |  |  |  |  |  |  |  |  |  | EC50 ([5]; read-out: EC50): 0.01 µg/mL (≈ 0.0287 µM) |
| COc1cc2ccc(=O)oc2cc1O [SCOPOLETIN] | >1000 µg/mL | > 5 µg/mL | >1000 µg/mL | > 1000 µg/mL | > 5 µg/mL | >1000 µg/mL | > 5 µg/mL | > 1000 µg/mL | >1000 µg/mL | > 1000 µg/mL | >1000 µg/mL | >1000 µg/mL | > 1000 µg/mL | > 1000 µg/mL | > 1000 µg/mL | > 1000 µg/mL | > 1000 µg/mL | > 5 µg/mL | >1000 µg/mL |  |
| COC1=CC(=O)c2cc(C)cc(O)c2C1=O | >1000 µg/mL | 5.5 µg/mL (≈ 25.2 µM) | >1000 µg/mL | > 1000 µg/mL | 2.4 µg/mL (≈ 11 µM) | >1000 µg/mL | 4.1 µg/mL (≈ 18.8 µM) | > 1000 µg/mL | >1000 µg/mL | > 1000 µg/mL | >1000 µg/mL | >1000 µg/mL | > 1000 µg/mL | > 1000 µg/mL | 700 µg/mL (≈ 3210 µM) | 700 µg/mL (≈ 3210 µM) | > 1000 µg/mL | 1.8 µg/mL (≈ 8.25 µM) | >1000 µg/mL |  |
| COC1=CC(=O)c2c(O)cc(C)cc2C1=O | 400 µg/mL | 2 µg/mL (≈ 9.17 µM) | 200 µg/mL | 100 µg/mL (≈ 458 µM) | 1.9 µg/mL (≈ 8.71 µM) | 800 µg/mL | 3.4 µg/mL (≈ 15.6 µM) | 50 µg/mL (≈ 229 µM) | 200 µg/mL | 100 µg/mL (≈ 458 µM) | 800 µg/mL | >1000 µg/mL | 50 µg/mL (≈ 229 µM) | 200 µg/mL (≈ 917 µM) | 50 µg/mL (≈ 229 µM) | 50 µg/mL (≈ 229 µM) | 50 µg/mL (≈ 229 µM) | 0.2 µg/mL (≈ 0.917 µM) | 800 µg/mL |  |
| COC(=O)c1c(O)cc(C)cc1O | >1000 µg/mL | > 5 µg/mL | >1000 µg/mL | > 1000 µg/mL | > 5 µg/mL | >1000 µg/mL | > 5 µg/mL | > 1000 µg/mL | >1000 µg/mL | > 1000 µg/mL | >1000 µg/mL | >1000 µg/mL | > 1000 µg/mL | > 1000 µg/mL | > 1000 µg/mL | > 1000 µg/mL | > 1000 µg/mL | > 5 µg/mL | >1000 µg/mL |  |
| CC12C(=O)c3cccc(O)c3C(=O)C1CC1=C2C(=O)c2c(O)cccc2C1=O (stereo unspecified) [ZEYLANONE] | >800 µg/mL | 3.3 µg/mL (≈ 8.82 µM) | 100 µg/mL | 3 µg/mL (≈ 8.01 µM) | 2.1 µg/mL (≈ 5.61 µM) | >800 µg/mL | 3.3 µg/mL (≈ 8.82 µM) | 10 µg/mL (≈ 26.7 µM) | 500 µg/mL | 30 µg/mL (≈ 80.1 µM) | 3 µg/mL | >800 µg/mL | 10 µg/mL (≈ 26.7 µM) | 6 µg/mL (≈ 16 µM) | 50 µg/mL (≈ 134 µM) | 200 µg/mL (≈ 534 µM) | 50 µg/mL (≈ 134 µM) | 14.5 µg/mL (≈ 38.7 µM) | 400 µg/mL |  |
| Cc1cc(O)c2c(c1)C(=O)C=CC2=O [RAMENTACEONE] | >1000 µg/mL | 5.7 µg/mL (≈ 30.3 µM) | 1 µg/mL | 0.3 µg/mL (≈ 1.59 µM) | 4.1 µg/mL (≈ 21.8 µM) | 1000 µg/mL | 3.7 µg/mL (≈ 19.7 µM) | 0.3 µg/mL (≈ 1.59 µM) | 1 µg/mL | 5 µg/mL (≈ 26.6 µM) | 20 µg/mL | 300 µg/mL | 0.3 µg/mL (≈ 1.59 µM) | 200 µg/mL (≈ 1060 µM) | 20 µg/mL (≈ 106 µM) | 5 µg/mL (≈ 26.6 µM) | 40 µg/mL (≈ 213 µM) | 13.2 µg/mL (≈ 70.1 µM) | 600 µg/mL |  |
| C=C(C)[C@@H]1CC[C@]2(C)CC[C@]3(C)[C@H](CC[C@@H]4[C@@]5(C)CC[C@H](O)C(C)(C)[C@@H]5CC[C@]43C)[C@@H]12 [LUPEOL] | >1000 µg/mL | > 5 µg/mL | >1000 µg/mL | > 1000 µg/mL | > 5 µg/mL | >1000 µg/mL | > 5 µg/mL | > 1000 µg/mL | >1000 µg/mL | > 1000 µg/mL | >1000 µg/mL | >1000 µg/mL | > 1000 µg/mL | > 1000 µg/mL | > 1000 µg/mL | > 1000 µg/mL | > 1000 µg/mL | > 5 µg/mL | >1000 µg/mL |  |
